Read-outs that look alike come from different tables or passages of the source.

Data on 24 compounds can be found in patent publication US9540323B2 (BRISTOL-MYERS SQUIBB COMPANY, priority 2012, dated 2017).

For test [1], the target named is cloned human P2Y1 receptors (Homo sapiens (Human), UniProt P47900). Description: Binding Assay B - Scintillation Proximity Assay (SPA) for P2Y1 binding, [33P] 2MeS-ADP. The note with it: read-out: P2Y1 Ki (nM) using binding assay B. The procedure: Binding Assay B—Scintillation Proximity Assay (SPA) for P2Y1 Binding
A SPA membrane binding assay was used to identify inhibitors of [^33P] […] Reactions were allowed to proceed to completion at room temperature for 1 hour followed by centrifugation of the plate for 5 min. About 40 μL of the aqueous solution was aspirated. Plates were sealed and the [^33P]

For test [2], the system named is human platelet rich plasma (PRP). Description: ADP induced platelet aggregation assay. The conditions noted are these: Homo sapiens, Platelet, 5 min, read-out: PA IC50 (μM) @ 10 μM ADP, human PRP, 10 μM ADP, AUC at 5 minute.
Procedure: The ability of P2Y1 antagonists covered in the present invention to inhibit platelet aggregation induced by 10 μM ADP was tested using human platelet rich plasma (PRP) as described in Platelet Protocols: Research and Clinical Laboratory Procedures (White, M. M. et al., Academic Press (1999)). Human blood was collected in 30 μM (final concentration in blood) argatroban (GSK) as the anticoagulant at a ratio of 1 mL per 9 mL of blood. The PRP was isolated by centrifugation at 170 g for 12 minutes. The platelet poor plasma (PPP) was used as the blank for optical aggregometry. Compounds of the present invention in DMSO solution was preincubated with 250 μL PRP at 37° C. for 1 minute with stirring speed of 1000 rpm. Aggregation was initiated by addition of 2.5 μL of 1 mM ADP (Chrono-log, Havertown, Pa.) for a final ADP concentration of 10 μM. Platelet aggregation was monitored using Optical Aggregometer (Chrono-log, Havertown, Pa.) and the area under the curve (AUC) at 5 minute was measured. IC50 was calculated using vehicle control as 0% inhibition.
[3] abbreviates: SPA, 0.3 nM [33P] 2MeS-ADP, Cheng-Prusoff.

Chain of cloned human P2Y1 receptors (P47900 whole entry): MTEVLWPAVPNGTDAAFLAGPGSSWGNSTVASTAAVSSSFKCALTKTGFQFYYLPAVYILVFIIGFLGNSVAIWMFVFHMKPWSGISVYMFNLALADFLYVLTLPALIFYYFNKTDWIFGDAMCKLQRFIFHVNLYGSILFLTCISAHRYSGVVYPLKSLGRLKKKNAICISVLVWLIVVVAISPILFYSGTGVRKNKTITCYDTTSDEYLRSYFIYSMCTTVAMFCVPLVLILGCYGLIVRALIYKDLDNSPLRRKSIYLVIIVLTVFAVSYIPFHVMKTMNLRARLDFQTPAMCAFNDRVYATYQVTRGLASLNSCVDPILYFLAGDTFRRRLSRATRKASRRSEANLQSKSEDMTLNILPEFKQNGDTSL

For orientation: Ki means the dissociation constant of the complex between target and ligand, obtained from inhibition or displacement. Broadly, the IC50 is the concentration that gives 50% inhibition. For the compound `Cc1cc(-c2c(F)cc(O)c3c2C(C)(C)CN3c2ccccc2NC(=O)Nc2ccc(OC(F)(F)F)cc2)ccc1F` [Example 245, 1-(2-(5-Fluoro-4-(4-fluoro-3-methylphenyl)-7-hydroxy-3,3-dimethylindolin-1-yl)phenyl)-3-(4-(trifluoromethoxy)phenyl)urea], the inhibitory constant (Ki) in test [1] (setting [3]) was 11.4 nM. For the same compound, the IC50 in test [2] was determined as 0.19 µM.

On to `CC(C)(C)CN1CCC(NC(=O)Nc2ccccc2N2CC(C)(C)c3c(-c4ccc(C(F)(F)F)cc4)c(F)cc(O)c32)CC1` [Example 246, 1-(2-(5-Fluoro-7-hydroxy-3,3-dimethyl-4-(4-(trifluoromethyl)phenyl)indolin-1-yl)phenyl)-3-(1-neopentylpiperidin-4-yl)urea], for which the Ki in test [1] (setting [3]) is 14.2 nM. For the same compound, the IC50 in test [2] amounted to 0.25 µM.

For the compound `CC1(C)CN(c2ccccc2NC(=O)Nc2ccc(OC(F)(F)F)cc2)c2c(O)cc(F)c(-c3cccc(C#N)c3)c21` [Example 247, 1-(2-(4-(3-Cyanophenyl)-5-fluoro-7-hydroxy-3,3-dimethylindolin-1-yl)phenyl)-3-(4-(trifluoromethoxy)phenyl)urea], in test [1] (setting [3]), the Ki stood at 10 nM. In addition, the IC50 in test [2] came to 0.87 µM.

On to `CC1(C)CN(c2ccccc2NC(=O)Nc2ccc(OC(F)(F)F)cc2)c2c(O)cc(F)c(-c3ccc(C#N)cc3)c21` [Example 248, 1-(2-(4-(4-Cyanophenyl)-5-fluoro-7-hydroxy-3,3-dimethylindolin-1-yl)phenyl)-3-(4-(trifluoromethoxy)phenyl)urea], for which the Ki in test [1] (setting [3]) is 7.4 nM. For the same compound, the IC50 in test [2] was 0.43 µM.

As for `CN(C)Cc1cccc(-c2c(F)cc(O)c3c2C(C)(C)CN3c2ccccc2NC(=O)Nc2ccc(OC(F)(F)F)cc2)c1` [Example 249, 1-(2-(4-(3-((Dimethylamino)methyl)phenyl)-5-fluoro-7-hydroxy-3,3-dimethylindolin-1-yl)phenyl)-3-(4-(trifluoromethoxy)phenyl)urea], the Ki in test [1] (setting [3]) was 12.2 nM. Also, in test [2], the IC50 was found to be 0.7 µM.

Regarding `C=C(C)c1ccc(-c2c(F)cc(O)c3c2C(C)(C)CN3c2ccccc2NC(=O)Nc2ccc(OC(F)(F)F)cc2)cc1` [Example 250, 1-(2-(5-Fluoro-7-hydroxy-3,3-dimethyl-4-(4-(prop-1-en-2-yl)phenyl)indolin-1-yl)phenyl)-3-(4-(trifluoromethoxy)phenyl)urea], in test [1] (setting [3]), the Ki was 29.5 nM. Also, the IC50 in test [2] stood at 0.22 µM.

For `CC1(C)CN(c2ccccc2NC(=O)Nc2ccc(OC(F)(F)F)cc2)c2c(O)cc(F)c(-c3cccc(CN4CCOCC4)c3)c21` [Example 251, 1-(2-(5-Fluoro-7-hydroxy-3,3-dimethyl-4-(3-(morpholinomethyl)phenyl)indolin-1-yl)phenyl)-3-(4-(trifluoromethoxy)phenyl)urea], the Ki in test [1] (setting [3]) was determined as 16.9 nM. Besides, the IC50 in test [2] is 0.93 µM.

For the compound `CC1(C)CN(c2ccccc2NC(=O)Nc2ccc(OC(F)(F)F)cc2)c2c(O)cc(F)c(C3CC3)c21` [Example 252, 1-(2-(4-Cyclopropyl-5-fluoro-7-hydroxy-3,3-dimethylindolin-1-yl)phenyl)-3-(4-(trifluoromethoxy)phenyl)urea], the Ki in test [1] (setting [3]) was 18.3 nM. In addition, in test [2], the IC50 is 0.42 µM.

As to `CC(C)n1nc(-c2c(F)cc(O)c3c2C(C)(C)CN3c2ccccc2NC(=O)Nc2nc3ccc(F)cc3s2)cc1C(F)(F)F` [Example 253, 1-(2-(5-Fluoro-7-hydroxy-4-(1-isopropyl-5-(trifluoromethyl)-1H-pyrazol-3-yl)-3,3-dimethylindolin-1-yl)phenyl)-3-(6-fluorobenzo[d]thiazol-2-yl)urea], in test [1] (setting [3]), the Ki was 33.4 nM. Moreover, the IC50 in test [2] came out at 0.12 µM.

With `CC(C)(C)c1nc(-c2c(F)cc(O)c3c2C(C)(C)CN3c2ccccc2NC(=O)Nc2nc3ccc(F)cc3s2)co1` [Example 254, 1-(2-(4-(2-tert-Butyloxazol-4-yl)-5-fluoro-7-hydroxy-3,3-dimethylindolin-1-yl)phenyl)-3-(6-fluorobenzo[d]thiazol-2-yl)urea], the Ki in test [1] (setting [3]) is 13.7 nM. Further, the IC50 in test [2] was 0.87 µM.

Take `CC(C)c1noc(-c2c(F)cc(O)c3c2C(C)(C)CN3c2ccccc2NC(=O)Nc2ccc(OC(F)(F)F)cc2)n1` [Example 256, 1-(2-(5-Fluoro-7-hydroxy-4-(3-isopropyl-1,2,4-oxadiazol-5-yl)-3,3-dimethylindolin-1-yl)phenyl)-3-(4-(trifluoromethoxy)phenyl)urea]: in test [1] (setting [3]), the Ki is 6.6 nM. In test [2], the IC50 turned out to be 0.76 µM.

Turning to `CC1(C)CN(c2ccccc2NC(=O)Nc2nc3ccc(Cl)nc3s2)c2c(O)cc(F)c(-c3noc(C(F)(F)F)n3)c21` [Example 257, 1-(5-Chlorothiazolo[5,4-b]pyridin-2-yl)-3-(2-(5-fluoro-7-hydroxy-3,3-dimethyl-4-(5-(trifluoromethyl)-1,2,4-oxadiazol-3-yl)indolin-1-yl)phenyl)urea], the Ki in test [1] (setting [3]) came to 86.2 nM. In addition, in test [2], the IC50 was 0.29 µM.

Consider `CC(C)c1nc(-c2c(F)cc(O)c3c2C(C)(C)CN3c2ccccc2NC(=O)Nc2ccc(OC(F)(F)F)cc2)co1` [Example 258, 1-(2-(5-Fluoro-7-hydroxy-4-(2-isopropyloxazol-4-yl)-3,3-dimethylindolin-1-yl)phenyl)-3-(4-(trifluoromethoxy)phenyl)urea], for which the Ki in test [1] (setting [3]) was found to be 7.5 nM. In addition, in test [2], the IC50 stood at 0.52 µM.

On to `CC(C)(C)c1nc(-c2c(F)cc(O)c3c2C(C)(C)CN3c2ccccc2NC(=O)Nc2ccc(OC(F)(F)F)cc2)co1` [Example 259, 1-(2-(4-(2-(tert-Butyl)oxazol-4-yl)-5-fluoro-7-hydroxy-3,3-dimethylindolin-1-yl)phenyl)-3-(4-(trifluoromethoxy)phenyl)urea], for which, in test [1] (setting [3]), the Ki worked out at 46.3 nM. Further, the IC50 in test [2] was 0.58 µM.

For the compound `CC(C)Cc1nc(-c2c(F)cc(O)c3c2C(C)(C)CN3c2ccccc2NC(=O)Nc2ccc(OC(F)(F)F)cc2)co1` [Example 260, 1-(2-(5-Fluoro-7-hydroxy-4-(2-isobutyloxazol-4-yl)-3,3-dimethylindolin-1-yl)phenyl)-3-(4-(trifluoromethoxy)phenyl)urea], the Ki in test [1] (setting [3]) is 18.8 nM. Also, the IC50 in test [2] was determined as 0.4 µM.

Consider `CC1(C)CN(c2ccccc2NC(=O)Nc2ccc(OC(F)(F)F)cc2)c2c(O)cc(F)c(-c3ccno3)c21` [Example 261, 1-(2-(5-Fluoro-7-hydroxy-4-(isoxazol-5-yl)-3,3-dimethylindolin-1-yl)phenyl)-3-(4-(trifluoromethoxy)phenyl)urea], for which, in test [1] (setting [3]), the Ki stood at 5.5 nM. The IC50 in test [2] amounted to 1.99 µM.

As for `CC1(C)CN(c2ccccc2NC(=O)Nc2ccc(OC(F)(F)F)cc2)c2c(O)cc(F)c(-c3cc(C(F)(F)F)no3)c21` [Example 262, 1-(2-(5-Fluoro-7-hydroxy-3,3-dimethyl-4-(3-(trifluoromethyl)isoxazol-5-yl)indolin-1-yl)phenyl)-3-(4-(trifluoromethoxy)phenyl)urea], the Ki in test [1] (setting [3]) amounted to 12.9 nM. Also, the IC50 in test [2] was found to be 0.92 µM.

Take `CC1(C)CN(c2ccccc2NC(=O)Nc2nc3ccc(Cl)nc3s2)c2c(O)cc(F)c(-c3cc(C(F)(F)F)no3)c21` [Example 263, 1-(5-Chlorothiazolo[5,4-b]pyridin-2-yl)-3-(2-(5-fluoro-7-hydroxy-3,3-dimethyl-4-(3-(trifluoromethyl)isoxazol-5-yl)indolin-1-yl)phenyl)urea]: in test [1] (setting [3]), the inhibitory constant (Ki) amounted to 20.5 nM. In test [2], the IC50 amounted to 0.84 µM.

As for `CC1(C)CN(c2ccccc2NC(=O)Nc2nc3ccc(F)cc3s2)c2c(O)cc(F)c(-c3cc(C(F)(F)F)no3)c21` [Example 264, 1-(2-(5-Fluoro-7-hydroxy-3,3-dimethyl-4-(3-(trifluoromethyl)isoxazol-5-yl)indolin-1-yl)phenyl)-3-(6-fluorobenzo[d]thiazol-2-yl)urea], the Ki in test [1] was 18.2 nM. Further, in test [2], the IC50 is 0.62 µM.

Take `CC1(C)CN(c2ccccc2NC(=O)Nc2nc3ccc(Cl)cc3s2)c2c(O)cc(F)c(-c3cc(C(F)(F)F)no3)c21` [Example 265, 1-(6-Chlorobenzo[d]thiazol-2-yl)-3-(2-(5-fluoro-7-hydroxy-3,3-dimethyl-4-(3-(trifluoromethyl)isoxazol-5-yl)indolin-1-yl)phenyl)urea]: the Ki in test [1] (setting [3]) turned out to be 49.9 nM. Further, the IC50 in test [2] is 0.4 µM.

As to `CC(C)n1nc(-c2c(F)cc(O)c3c2C(C)(C)CN3c2ccccc2NC(=O)Nc2nc3ccc(Cl)cc3s2)cc1C(F)(F)F` [Example 266, 1-(6-Chlorobenzo[d]thiazol-2-yl)-3-(2-(5-fluoro-7-hydroxy-4-(1-isopropyl-5-(trifluoromethyl)-1H-pyrazol-3-yl)-3,3-dimethylindolin-1-yl)phenyl)urea], the inhibition constant (Ki) in test [1] (setting [3]) turned out to be 41.1 nM. Moreover, in test [2], the IC50 came to 0.13 µM.

In the case of `CC(C)n1nc(C(F)(F)F)cc1-c1c(F)cc(O)c2c1C(C)(C)CN2c1ccccc1NC(=O)Nc1nc2ccc(F)cc2s1` [Example 267, 1-(2-(5-Fluoro-7-hydroxy-4-(1-isopropyl-3-(trifluoromethyl)-1H-pyrazol-5-yl)-3,3-dimethylindolin-1-yl)phenyl)-3-(6-fluorobenzo[d]thiazol-2-yl)urea], the Ki in test [1] (setting [3]) turned out to be 16.4 nM. In addition, the IC50 in test [2] turned out to be 0.51 µM.

Take `CC(C)n1nc(C(F)(F)F)cc1-c1c(F)cc(O)c2c1C(C)(C)CN2c1ccccc1NC(=O)Nc1nc2ccc(Cl)cc2s1` [Example 268, 1-(6-Chlorobenzo[d]thiazol-2-yl)-3-(2-(5-fluoro-7-hydroxy-4-(1-isopropyl-3-(trifluoromethyl)-1H-pyrazol-5-yl)-3,3-dimethylindolin-1-yl)phenyl)urea]: in test [1] (setting [3]), the Ki came out at 18.1 nM. The IC50 in test [2] was found to be 0.45 µM.

For the compound `CC1(C)CN(c2ccccc2NC(=O)Nc2csc(Cl)n2)c2c(O)cc(F)c(-c3cc(C(F)(F)F)no3)c21` [Example 269, 1-(2-Chlorothiazol-4-yl)-3-(2-(5-fluoro-7-hydroxy-3,3-dimethyl 4-(3-(trifluoromethyl)isoxazol-5-yl)indolin-1-yl)phenyl)urea], in test [1] (setting [3]), the Ki came to 1.2 nM. For the same compound, the IC50 in test [2] was 0.39 µM.
